Measurements reported in patent US12144808B2, “Compositions and methods” (INTRA-CELLULAR THERAPIES, INC., priority 2018, dated 2024).

Experiments:
[1] = Example 2: pharmacokinetics of oral dosing in dogs; type: in vivo; conditions: both sexes, beagle, dog, plasma, oral capsules, tosylate salt; for AUC: 0-24 hours
Description: For control, the dogs are administered empty capsules. For the Compound of Formula I, the dogs are administered normal-release oral capsules. Blood samples are obtained at 0.25 hours, 0.5 hours, 1 hour, 4 hours, 8 hour and 24 hours. […] Cmax, Tmax and area-under-the-curve (AUC, 0-24 hours) are calculated using Phoenix WinNonlin software.

[2] = test system: muscarinic receptors; conditions: cited from earlier work
[3] = oral bioavailability; conditions: in vivo
[4] = Example 1A: pharmacokinetics of subcutaneous (SC) and sublingual (SL) dosing in dogs; type: in vivo; conditions: male, beagle, dog, 1 mg/kg, tosylate salt, plasma; for AUC: 0-24 hours
Description: SC Administration: Six male beagle dogs between 2 and 5 years of age are randomized in two groups of three dogs each. […] Dogs in group 2 are administered the Compound of Formula II at a dose of 1 mg/kg (free base equivalent) in a 0.5% methylcellulose/distilled water vehicle. Administration is subcutaneous in the intrascapular region via a 22 or 23 gauge needle. Whole blood samples are collected via the dog's cephalic vein pre-dose, and at post-dose time-points 5, 15 and 30 minutes, 1, 2, 4, 6, 8 and 24 hours. Following a minimum 7-day washout period, the dogs are transferred to the sublingual portion of the study.
Dogs in group 2 are administered the Compound of Formula II at a dose of 1 mg/kg (free base equivalent) in a 0.5% methylcellulose/distilled water vehicle. The animals are anesthetized prior to administration of the dose using propofol (6 mg/kg) and anesthesia is maintained for 30 minutes using 3-4.5% isoflurane. Administration is sublingual and the dosage is applied for 30 minutes, then wiped off using unwoven gauze. Whole blood samples are collected via the dog's cephalic vein pre-dose, and at post-dose time-points 5, 15 and 30 minutes, 1, 2, 4, 6, 8, 24, 36 and 48 hours.
All blood samples are processed to plasma and analyzed for drug concentrations using liquid chromatography-tandem mass spectrometry (LC-MS/MS). Area under the curve (AUC) of parent and metabolites based on plasma versus time data are calculated using Prism 5.04 software (GraphPad Software, Inc.).

[5] = biological target: T1, 5-HT2C receptors (Homo sapiens, UniProt P28335); conditions: cited from earlier work
T1 sequence (P28335 33-458): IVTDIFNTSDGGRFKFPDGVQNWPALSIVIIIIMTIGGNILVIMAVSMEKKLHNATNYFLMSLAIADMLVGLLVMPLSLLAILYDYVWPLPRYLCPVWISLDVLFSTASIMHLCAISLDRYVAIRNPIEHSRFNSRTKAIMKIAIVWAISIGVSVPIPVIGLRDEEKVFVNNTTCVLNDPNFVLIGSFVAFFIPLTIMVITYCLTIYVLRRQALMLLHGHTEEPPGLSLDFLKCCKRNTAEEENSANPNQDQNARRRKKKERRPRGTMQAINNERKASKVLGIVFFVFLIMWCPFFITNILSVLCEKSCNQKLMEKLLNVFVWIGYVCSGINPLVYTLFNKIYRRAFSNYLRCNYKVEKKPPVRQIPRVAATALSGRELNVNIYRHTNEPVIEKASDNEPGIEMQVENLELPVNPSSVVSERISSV

[6] = biological target: H1 histaminergic receptors (Homo sapiens, UniProt P35367); conditions: cited from earlier work
[7] = Example 3: pharmacokinetics of SC and IV dosing in monkeys; type: in vivo; conditions: cynomolgus monkey, 0.5 mg/kg, plasma; for AUC: read-out: AUC, Parent Compound; for Cmax: read-out: Cmax, Parent Compound; for Tmax: read-out: Tmax, Parent Compound
Description: Six Cynomolgus monkeys are divided into two groups for IV and SC dosing with the Compound of Formula I. The animals are dosed in a fasting state. Blood samples are collected pre-dose, and at 5 minutes, 15 minutes, 1, 2, 4, 6, 8, 24, 36 and 48 hours post-dose. All blood samples are processed to plasma and later analyzed by liquid chromatography-tandem mass spectrometry. […] PK parameters are calculated using PK Solutions 2.0 software (Summit Research Services, Colorado, US).

[8] = Example 1B: SC and SL pharmacokinetics in dogs with metabolite analysis; type: in vivo; conditions: male, beagle, dog, 1 mg/kg, plasma, analyte parent; for AUC: 0-24 hours
Description: SC Administration: Six male beagle dogs between 2 and 5 years of age are randomized in two groups of three dogs each. […] Administration is subcutaneous in the intrascapular region via a 22 or 23 gauge needle. […] Following a minimum 7-day washout period, the dogs are transferred to the sublingual portion of the study. SL Administration: […] The animals are anesthetized prior to administration of the dose using propofol (6 mg/kg) and anesthesia is maintained for 30 minutes using 3-4.5% isoflurane. Administration is sublingual and the dosage is applied for 30 minutes, then wiped off using unwoven gauze. […] All blood samples are processed to plasma and analyzed for drug concentrations using liquid chromatography-tandem mass spectrometry (LC-MS/MS). Area under the curve (AUC) of parent and metabolites based on plasma versus time data are calculated using Prism 5.04 software (GraphPad Software, Inc.). A second study is performed substantially as described for Example 1A, except that plasma samples are analyzed for the parent (administered) compounds, as well as for the major known metabolites. […] The results are summarized in Table 1B below (AUC is shown for 0-24 hours): […]

H1 histaminergic receptors, sequence (P35367 whole entry): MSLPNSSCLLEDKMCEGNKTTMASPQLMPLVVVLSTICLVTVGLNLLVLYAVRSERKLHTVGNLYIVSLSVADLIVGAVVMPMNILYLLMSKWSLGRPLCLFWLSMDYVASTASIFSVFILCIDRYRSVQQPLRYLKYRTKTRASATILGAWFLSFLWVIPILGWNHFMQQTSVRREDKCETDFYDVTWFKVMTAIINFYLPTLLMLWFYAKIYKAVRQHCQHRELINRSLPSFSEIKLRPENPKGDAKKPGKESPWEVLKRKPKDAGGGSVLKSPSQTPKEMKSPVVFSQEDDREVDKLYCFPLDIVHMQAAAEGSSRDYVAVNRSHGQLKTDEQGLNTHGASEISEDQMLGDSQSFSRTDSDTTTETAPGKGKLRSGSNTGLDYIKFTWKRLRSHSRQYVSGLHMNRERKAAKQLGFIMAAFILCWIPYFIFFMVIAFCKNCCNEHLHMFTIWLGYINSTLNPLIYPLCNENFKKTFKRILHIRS

Q: For `CN1CCN2c3c(cccc31)[C@@H]1CN(CCCC(=O)c3ccc(F)cc3)CC[C@@H]12` [Compound of Formula I, 1-(4-fluoro-phenyl)-4-((6bR,10aS)-3-methyl-2,3,6b,9,10,10a-hexahydro-1H,7H-pyrido[3′,4′:4,5]pyrrolo[1,2,3-de]quinoxalin-8-yl)-butan-1-one], which Cmax ([1]; 2.5 mg/kg) is on record?
A: The Cmax was 0.00551 µg/mL.

Q: And the Tmax ([1]; 2.5 mg/kg)?
A: Its Tmax is 0.469 h.

Q: And the AUC ([1]; 2.5 mg/kg)?
A: Its AUC is 0.04 µg·h/mL.

Q: What about the Cmax ([1]; 5 mg/kg) of the same compound?
A: The Cmax was 0.00772 µg/mL.

Q: And the Tmax ([1]; 5 mg/kg)?
A: The Tmax was 0.875 h.

Q: What about the AUC ([1]; 5 mg/kg) of the same compound?
A: The AUC was 0.0525 µg·h/mL.

Q: And the Cmax ([1]; 10 mg/kg)?
A: Its Cmax is 0.029 µg/mL.

Q: And the Tmax ([1]; 10 mg/kg)?
A: The Tmax was 0.813 h.

Q: And the AUC ([1]; 10 mg/kg)?
A: The AUC was 0.143 µg·h/mL.

Q: What about the Cmax ([1]; 15 mg/kg) of the same compound?
A: Its Cmax is 0.0445 µg/mL.

Q: What about the Tmax ([1]; 15 mg/kg) of the same compound?
A: Its Tmax is 1.63 h.

Q: What about the AUC ([1]; 15 mg/kg) of the same compound?
A: The AUC was 0.248 µg·h/mL.

Q: What about the “binding to muscarinic receptors” value [2] of the same compound?
A: Its value is “negligible binding”.

Q: And the bioavailability [3]?
A: Its bioavailability is at most 5%.

Q: What about the Cmax ([4]; SC) of the same compound?
A: The Cmax was 0.11 µg/mL.

Q: What about the Tmax ([4]; SC) of the same compound?
A: The Tmax was 1 h.

Q: And the AUC ([4]; SC)?
A: Its AUC is 0.813 µg·h/mL.

Q: What about the Cmax ([4]; SL) of the same compound?
A: Its Cmax is 0.259 µg/mL.

Q: And the Tmax ([4]; SL)?
A: Its Tmax is 1 h.

Q: And the AUC ([4]; SL)?
A: Its AUC is 0.734 µg·h/mL.

Q: And the “binding to 5-HT2C receptors” value [5]?
A: The value was “negligible binding”.

Q: And the “binding to H1 histaminergic receptors” value [6]?
A: Its value is “negligible binding”.

Q: What about the AUC ([7]; Cynomolgus, SC) of the same compound?
A: Its AUC is 0.22 µg·h/mL.

Q: What about the Cmax ([7]; Cynomolgus, SC) of the same compound?
A: The Cmax was 0.023 µg/mL.

Q: And the Tmax ([7]; Cynomolgus, SC)?
A: The Tmax was 2 h.

Q: And the bioavailability ([7]; Cynomolgus, subcutaneous, SC administration, read-out: bioavailability (comparison of IV to SC pharmacokinetics))?
A: The bioavailability was about 74%.

Q: And the AUC ([7]; IV)?
A: The AUC was 0.297 µg·h/mL.

Q: And the Cmax ([7]; IV)?
A: The Cmax was 0.094 µg/mL.

Q: And the Tmax ([7]; IV)?
A: Its Tmax is 0.083 h.

Q: And the AUC ([8]; SC)?
A: Its AUC is 0.56 µg·h/mL.

Q: What about the AUC ([8]; SL) of the same compound?
A: Its AUC is 0.507 µg·h/mL.

Q: What about the Cmax ([8]; SC) of the same compound?
A: Its Cmax is 0.076 µg/mL.

Q: And the Tmax ([8]; SC)?
A: The Tmax was 1 h.

Q: What about the Cmax ([8]; SL) of the same compound?
A: Its Cmax is 0.179 µg/mL.

Q: And the Tmax ([8]; SL)?
A: Its Tmax is 1 h.

Q: With `[2H]C1([2H])CN2c3c(cccc3N1C)[C@@H]1CN(CCCC(=O)c3ccc(F)cc3)CC[C@@H]12` [Compound of Formula II, 1-(4-fluoro-phenyl)-4-((6bR,10aS)-2,2-d2-3-methyl-2,3,6b,9,10,10a-hexahydro-1H,7H-pyrido[3′,4′:4,5]pyrrolo[1,2,3-de]quinoxalin-8-yl)-butan-1-one] as the compound, how does the Cmax ([4]; SC) read?
A: Its Cmax is 0.079 µg/mL.

Q: And the Tmax ([4]; SC)?
A: The Tmax was 1 h.

Q: What about the AUC ([4]; SC) of the same compound?
A: The AUC was 0.785 µg·h/mL.

Q: And the Cmax ([4]; SL)?
A: Its Cmax is 0.562 µg/mL.

Q: And the Tmax ([4]; SL)?
A: Its Tmax is 1 h.

Q: And the AUC ([4]; SL)?
A: The AUC was 1.26 µg·h/mL.

Q: What about the AUC ([8]; SC) of the same compound?
A: The AUC was 0.785 µg·h/mL.

Q: And the AUC ([8]; SL)?
A: The AUC was 1.26 µg·h/mL.

Q: And the Cmax ([8]; SC)?
A: The Cmax was 0.079 µg/mL.

Q: What about the Tmax ([8]; SC) of the same compound?
A: Its Tmax is 1 h.

Q: And the Cmax ([8]; SL)?
A: The Cmax was 0.562 µg/mL.

Q: What about the Tmax ([8]; SL) of the same compound?
A: The Tmax was 1 h.
